Each structure is given as a SMILES string. pIC50: −log10 of the molar value. Where “and” joins values, the source holds several entries; their conditions need not be identical. Identical values can stand only once.

One may read the inhibition as the percentage by which the read-out fell short of the control. Higher therefore signals strong suppression. The pIC50 is the IC50 on a negative log10 scale, so that one unit is a factor of ten. A higher pIC50 goes with a small IC50.

The test has as its system S6K1 (Thr389) phosphorylation (mTORC1 activity) in FKBP12 knock-out 293T cells. Kind of test: Inhibition of S6K1 (Thr389) phosphorylation in FKBP12 knock-out 293T cells (ELISA). Format: cell-based, human. The essentials: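 CRISPR-generated FKBP12 knock-out HEK293T cells, alongside wild-type, were treated in duplicate for 2 hours at 37 °C with an 8–11-point dose range (0.001 pM–10 μM). Phospho-S6K1 Thr389 quantified by ELISA as an mTORC1 activity read-out, with DMSO as negative control.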

Take `CO[C@H]1C[C@@H]2CC[C@@H](C)[C@@](O)(O2)C(=O)C(=O)N2CCCC[C@H]2C(=O)O[C@H]([C@H](C)C[C@@H]2CC[C@@H](OCCO)[C@H](OC)C2)CC(=O)[C@H](C)/C=C(\C)[C@@H](O)[C@@H](OC)C(=O)[C@H](C)C[C@H](C)/C=C/C=C/C=C/1C` [RAD001, everolimus, reference compound]: for the setting “FKBP12 knock-out 293T cells, concentration not given”, the S6K1 inhibition achieved entry is given as “about 50%”. For the same compound, for the setting “FKBP12 knock-out cells”, the “concentration achieving 30% inhibition of S6K1 (Thr389) phosphorylation” value is on record as ~3.0 nM, the “concentration achieving ~40% of S6K1 (Thr389) inhibition” value is 447 nM and the “inhibition of S6K1 (Thr389) phosphorylation in the absence of FKBP12 (in words)” value is “inhibited the mTORC1 signaling in a dose dependent manner”. Under “FKBP12 knock-out cells, 100 nM, 0.1 µM”, the “inhibition of S6K1 phosphorylation” value is ~35%. For the setting “FKBP12 knock-out cells, 10 μM (highest tested concentration), 10 µM”, the “inhibition of S6K1 (Thr389) phosphorylation” value was ~80% and ~70% and 42% and 45% and 58% and 73.5% and 62% and ~60%. Further, the inhibition at 0.1 µM (Homo sapiens, HEK-293T, FKBP12 knock-out cells, 100 nM) is ~30%. This compound also gave a pIC50 (Homo sapiens, HEK-293T, FKBP12 knock-out 293T cells) of 7.50.
With `COCCN(c1ccccc1)C1C[C@@H]2CC[C@@H](C)[C@@](O)(O2)C(=O)C(=O)N2CCCC[C@H]2C(=O)OC([C@H](C)CC2CC[C@@H](O)C(OC)C2)CC[C@H](C)/C=C(\C)C(O)C(OC)C(=O)[C@H](C)C[C@H](C)/C=C/C=C/C=C/1C` (stereo partly drawn) [Compound 69, (3S,6S,7E,9R,10R,12R,14S,15E,17E,19E,23S,26R,27R,34aS)-9,27-dihydroxy-3-((R)-1-((1S,3R,4R)-4-hydroxy-3-methoxycyclohexyl)propan-2-yl)-10-methoxy-21-((2-methoxyethyl)(phenyl)amino)-6,8,12,14,20,26-hexamethyl-5,6,9,10,12,13,14,21,22,23,24,25,26,27,32,33,34,34a-octadecahydro-3H-23,27-epoxypyrido[2,1-c][1]oxa[4]azacyclohentriacontine-1,11,28,29(4H,31H)-tetraone], under “FKBP12 knock-out cells, at similar level of inhibition”, the “fold less potent compared with RAD001” value is recorded as “about 3000 fold”. Also, under “Homo sapiens, HEK-293T, FKBP12 knock-out cells, 10 μM (highest tested concentration)”, the inhibition at 10 µM is ~30%. Moreover, the “selectivity for FKBP12 compared with RAD001 (in words)” value (wild-type versus FKBP12 knock-out cells) was “more selective than RAD001”.
